16 compounds from ChEMBL document CHEMBL1201862, “PubChem BioAssay data set” (2004) can be followed below.

Calls of active or inactive are those of the source.

System in the first assay: not listed separately
Briefly: cytotoxicity toward NIH3T3 fibroblasts, dose response, counter-screen, cell-based, ATP luminescence, mouse fibroblasts (AID 2010).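 Also: cells exposed to compound for about 90 hours before reading.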 The class given is functional.
Details: not given
Background: A counterscreen serves to expose hits that act by an unwanted route or on another target.
With `CCC(=O)NC(c1ccc(OC)c(OC)c1)c1cc(Cl)c2cccnc2c1O` (stereo not drawn), the EC50 was 4.73 µM (active).

Another assay concerns P388. Description: cells. The class given is functional. To be noted: Mus musculus.
As to `CNC(=O)OCc1nc(SSC(C)(C)C)n(C)c1COC(=O)NC`, the GI50 was 1.12 µM (inactive).
As for `O=NN(CCCl)C(=O)N[C@H]1CC[C@@H](C(=O)O)CC1`, the GI50 is 5.14 µM (inactive).
Regarding `ClCc1nnc2n1-c1ccc(Cl)cc1SC2`, the GI50 is 0.927 µM (active).
On the same count and under the same terms, then `Cc1c(N=NN(C)C)cc[n+]([O-])c1C`, with > 100 µM (inactive); and `C=C/C(C)=C/[C@H](C)C(=O)C[C@H](O)CC1CC(=O)NC(=O)C1`, with 9.86 µM (inactive); and `O=c1cnn(C2OC(CO)C(O)C2O)c(=S)[nH]1` (stereo not drawn), with 1.92 µM (inactive).
Consider `C#CC[C@@]12CC(=O)C[C@@H]1CCC1(C2)OCCO1.C#CC[C@]12CC(=O)CC[C@H]1CC(=O)C2`, for which the GI50 was 23.7 µM (inactive).
On the same count and under the same terms, then `N/C(=N\O)N/N=C\c1cc([N+](=O)[O-])cc([N+](=O)[O-])c1O`, with 2.3 µM (inactive); and `CCOC(=O)C(N)CSC(=O)NC` (stereo not drawn), with 30.1 µM (inactive).
Turning to `C/C([O-])=C(/c1nc(-c2ccc([N+](=O)[O-])o2)no1)[n+]1cc(C)ccc1C`, the GI50 is 54.8 µM (inactive).
Regarding `CSc1nc2c(ncn2C2OCC(O)C(O)C2O)c(=O)n1C` (stereo not drawn), the GI50 is > 100 µM (inactive).
`CCOC(=O)c1ccc(N[C@@H]2c3cc4c(cc3C(c3cc(OC)c(O)c(OC)c3)[C@H]3C(=O)OCC32)OCO4)cc1` (stereo partly drawn): the GI50 was < 0.01 µM (active).
For the compound `COc1cc(C2c3cc4c(cc3[C@@H](Nc3cccc(C(C)=O)c3)C3COC(=O)[C@H]23)OCO4)cc(OC)c1O` (stereo partly drawn), the concentration for 50% growth inhibition (GI50) was < 0.01 µM (active).
In the case of `O=C(NC(c1ccccc1)C(O)C(=O)OCc1ccc2c(c1)C(=O)c1ccccc1C2=O)c1ccccc1` (stereo not drawn), the GI50 was 90.2 µM (inactive).
On to `COc1cc(C2c3cc4c(cc3[C@@H](Nc3ccc(N5CCOCC5)cc3)C3COC(=O)[C@H]23)OCO4)cc(OC)c1O` (stereo partly drawn), for which the GI50 was < 0.01 µM (active).

The subject of another assay is Streptococcus sp. 'group A'. Description: growth inhibition of control SK(-) GAS strain, dose response, counter-screen for streptokinase expression inhibitor project, luminescence, kanamycin, BacTiterGlo, confirmation (AID 1900). The class given is functional, organism-based.
Details: not given
For the compound `CCC(=O)NC(c1ccc(OC)c(OC)c1)c1cc(Cl)c2cccnc2c1O` (stereo not drawn), the EC50 was 4.86 µM (active).

For a further assay, the target named is T1, Streptokinase A (Streptococcus pyogenes serotype M1, UniProt P10520).
T1 sequence (P10520 whole entry): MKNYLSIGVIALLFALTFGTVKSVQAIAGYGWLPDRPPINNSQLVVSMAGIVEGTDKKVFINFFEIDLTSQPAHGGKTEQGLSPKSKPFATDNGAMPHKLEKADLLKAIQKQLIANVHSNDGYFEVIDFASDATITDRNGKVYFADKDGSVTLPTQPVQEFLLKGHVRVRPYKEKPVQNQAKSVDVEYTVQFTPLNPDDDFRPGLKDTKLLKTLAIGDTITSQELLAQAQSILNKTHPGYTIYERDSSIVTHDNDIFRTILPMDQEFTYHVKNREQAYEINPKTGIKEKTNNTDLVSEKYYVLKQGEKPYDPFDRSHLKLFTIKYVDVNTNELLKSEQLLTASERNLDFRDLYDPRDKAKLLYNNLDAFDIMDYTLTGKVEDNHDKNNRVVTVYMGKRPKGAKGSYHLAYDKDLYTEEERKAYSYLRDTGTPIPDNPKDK
Description: S. pyogenes streptokinase expression inhibitors, potency, dose response, plasminogen activation absorbance, OD405 (AID 1914).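 Also: secreted streptokinase activity via plasminogen activation per viability signal from cell pellet.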
Details: not given
The class given is functional, Streptococcus pyogenes M1 GAS.
On to `CCC(=O)NC(c1ccc(OC)c(OC)c1)c1cc(Cl)c2cccnc2c1O` (stereo not drawn), for which the EC50 is recorded as > 150 µM (not active).

System in the next assay: not listed separately
Description: inhibitors of intracellular T. cruzi replication, confirmation, NIH3T3 host cells, beta-gal luminescence (AID 2044).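 Also: intracellular parasites grown in NIH/3T3 mouse fibroblasts as host cells; luminescent beta-galactosidase reporter signal from transgenic T. cruzi replicating inside host cells; inhibitors lower the luminescence signal.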
Details: not given
The class given is functional, cell-based.
On to `CCC(=O)NC(c1ccc(OC)c(OC)c1)c1cc(Cl)c2cccnc2c1O` (stereo not drawn), for which the EC50 is 0.96 µM (active).

Another assay relates to SN12K1. Description: cells. The class given is functional. The note with it: Homo sapiens.
`CNC(=O)OCc1nc(SSC(C)(C)C)n(C)c1COC(=O)NC`: the GI50 is 5.13 µM (inactive).
Same read-out and setting: as for `O=NN(CCCl)C(=O)N[C@H]1CC[C@@H](C(=O)O)CC1`, the figure is 98.6 µM (inactive); as for `ClCc1nnc2n1-c1ccc(Cl)cc1SC2`, 2.83 µM (inactive).
For the compound `Cc1c(N=NN(C)C)cc[n+]([O-])c1C`, the GI50 was > 100 µM (inactive).
Same read-out and setting: as for `C=C/C(C)=C/[C@H](C)C(=O)C[C@H](O)CC1CC(=O)NC(=O)C1`, the figure is 35.5 µM (inactive); as for `O=c1cnn(C2OC(CO)C(O)C2O)c(=S)[nH]1` (stereo not drawn), 3.06 µM (inactive).
Turning to `C#CC[C@@]12CC(=O)C[C@@H]1CCC1(C2)OCCO1.C#CC[C@]12CC(=O)CC[C@H]1CC(=O)C2`, the GI50 is > 100 µM (inactive).
With `N/C(=N\O)N/N=C\c1cc([N+](=O)[O-])cc([N+](=O)[O-])c1O`, the GI50 is 0.743 µM (active).
For `CCOC(=O)C(N)CSC(=O)NC` (stereo not drawn), the GI50 was 44.1 µM (inactive).
For the compound `C/C([O-])=C(/c1nc(-c2ccc([N+](=O)[O-])o2)no1)[n+]1cc(C)ccc1C`, the GI50 was 13.4 µM (inactive).
Still for that read-out and setting: as for `CSc1nc2c(ncn2C2OCC(O)C(O)C2O)c(=O)n1C` (stereo not drawn), the figure is > 100 µM (inactive); as for `CCOC(=O)c1ccc(N[C@@H]2c3cc4c(cc3C(c3cc(OC)c(O)c(OC)c3)[C@H]3C(=O)OCC32)OCO4)cc1` (stereo partly drawn), < 0.01 µM (active).
Still for that read-out and setting: as for `COc1cc(C2c3cc4c(cc3[C@@H](Nc3cccc(C(C)=O)c3)C3COC(=O)[C@H]23)OCO4)cc(OC)c1O` (stereo partly drawn), the figure is < 0.0361 µM (active).
Still for that read-out and setting: as for `O=C(NC(c1ccccc1)C(O)C(=O)OCc1ccc2c(c1)C(=O)c1ccccc1C2=O)c1ccccc1` (stereo not drawn), the figure is 1.84 µM (inactive).
`COc1cc(C2c3cc4c(cc3[C@@H](Nc3ccc(N5CCOCC5)cc3)C3COC(=O)[C@H]23)OCO4)cc(OC)c1O` (stereo partly drawn): the GI50 was 1 µM (active).

For the next assay, the system named is Streptococcus. Description: Group A Streptococcus viability loss, dose response, counter-screen for streptokinase expression inhibitor project, luminescence, BacTiterGlo (AID 1915).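 Also: potency for reduction of bacterial viability or growth.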 The class given is functional, organism-based.
Details: not given
Regarding `CCC(=O)NC(c1ccc(OC)c(OC)c1)c1cc(Cl)c2cccnc2c1O` (stereo not drawn), the EC50 was > 150 µM (not active).

A further assay relates to P388/ADR. Briefly: cells. The class given is functional. To be noted: Mus musculus.
As to `CNC(=O)OCc1nc(SSC(C)(C)C)n(C)c1COC(=O)NC`, the GI50 is 2.47 µM (inactive).
Turning to `O=NN(CCCl)C(=O)N[C@H]1CC[C@@H](C(=O)O)CC1`, the GI50 was 5.26 µM (inactive).
For `ClCc1nnc2n1-c1ccc(Cl)cc1SC2`, the GI50 was 1.66 µM (inactive).
Still for that read-out and setting: then `Cc1c(N=NN(C)C)cc[n+]([O-])c1C`, with > 100 µM (inactive).
Still for that read-out and setting: then `C=C/C(C)=C/[C@H](C)C(=O)C[C@H](O)CC1CC(=O)NC(=O)C1`, with 27.2 µM (inactive).
As to `O=c1cnn(C2OC(CO)C(O)C2O)c(=S)[nH]1` (stereo not drawn), the GI50 was 0.933 µM (active).
Turning to `C#CC[C@@]12CC(=O)C[C@@H]1CCC1(C2)OCCO1.C#CC[C@]12CC(=O)CC[C@H]1CC(=O)C2`, the GI50 is 36.6 µM (inactive).
Regarding `N/C(=N\O)N/N=C\c1cc([N+](=O)[O-])cc([N+](=O)[O-])c1O`, the GI50 is 7.59 µM (inactive).
For `CCOC(=O)C(N)CSC(=O)NC` (stereo not drawn), the GI50 was 12.3 µM (inactive).
For `C/C([O-])=C(/c1nc(-c2ccc([N+](=O)[O-])o2)no1)[n+]1cc(C)ccc1C`, the GI50 was > 100 µM (inactive).
For `CSc1nc2c(ncn2C2OCC(O)C(O)C2O)c(=O)n1C` (stereo not drawn), the GI50 was > 100 µM (inactive).
For the compound `CCOC(=O)c1ccc(N[C@@H]2c3cc4c(cc3C(c3cc(OC)c(O)c(OC)c3)[C@H]3C(=O)OCC32)OCO4)cc1` (stereo partly drawn), the GI50 is 0.0256 µM (active).
For the compound `COc1cc(C2c3cc4c(cc3[C@@H](Nc3cccc(C(C)=O)c3)C3COC(=O)[C@H]23)OCO4)cc(OC)c1O` (stereo partly drawn), the GI50 is 0.124 µM (active).
As for `O=C(NC(c1ccccc1)C(O)C(=O)OCc1ccc2c(c1)C(=O)c1ccccc1C2=O)c1ccccc1` (stereo not drawn), the GI50 is 33.8 µM (inactive).
On the same count and under the same terms, then `COc1cc(C2c3cc4c(cc3[C@@H](Nc3ccc(N5CCOCC5)cc3)C3COC(=O)[C@H]23)OCO4)cc(OC)c1O` (stereo partly drawn), with 0.0735 µM (active).

System in a further assay: not listed separately
Description: HepG2 cell cytotoxicity, dose response, cytotoxicity control for Shn3 inhibitor project, CellTiter-Glo, cherry-picked (AID 624134). The class given is functional, cell-based.
Details: not given
In general terms: Cellular ATP, detected with luciferase, serves as a proxy for viable cell number.
Take `CCC(=O)NC(c1ccc(OC)c(OC)c1)c1cc(Cl)c2cccnc2c1O` (stereo not drawn): the AC50 was 5.6 µM (active).

System in another assay: not listed separately
Briefly: control 3'UTR Renilla luciferase suppression, dose response, counter-screen for Shn3 inhibitor project, cell-based, Clone20-Shn3RL, cherry-picked (AID 624133). The class given is functional.
Details: not given
On to `CCC(=O)NC(c1ccc(OC)c(OC)c1)c1cc(Cl)c2cccnc2c1O` (stereo not drawn), for which the AC50 is 2.11 µM (active).

System in another assay: not listed separately
Description: Shn3 3'UTR reporter inhibitors, dose response, cell-based, Clone20 osteoblasts, firefly luciferase, cherry-picked (AID 624132).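 Also: firefly luciferase luminescence from reporter carrying the Shn3 3'UTR in osteoblasts.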
Details: not given
The class given is functional.
On to `CCC(=O)NC(c1ccc(OC)c(OC)c1)c1cc(Cl)c2cccnc2c1O` (stereo not drawn), for which the AC50 is < 0.26 µM (active).

Broadly, the EC50 is the midpoint of the concentration-response curve. A word on the GI50: it is the concentration giving 50% growth inhibition. By AC50 is commonly meant the midpoint of the concentration-response curve, whichever way the signal moves.
